Measured values published in PubChem BioAssay AID504481 (NMMLSC, 2011).
Activity calls are given as the source filed them.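 Rule for the calls: active = fold change below 0.65 in a panel strain, matching the primary screen cutoff; inactive = the rest.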

What was measured:
Assay in all cases: GFP reporter expression in transducer deletion yeast, mechanism study for yeast TOR pathway modulator project, S. cerevisiae, transducer mutant strains, GFP-tagged proteins (AID 504481);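 note: 1 = DMSO wells as ratio of mean channel GFP fluorescence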
Conditions in all cases: S. cerevisiae transducer mutants, GFP-fusion expression, flow cytometry, 3 h
[1] = tested on: BY4741
[2] = tested on: YBR084C-A
[3] = tested on: YNL142W
[4] = tested on: YCR005C
[5] = tested on: YCL025C
[6] = tested on: YKL103C

Compound	fold change [1]	fold change [2]	fold change [3]	fold change [4]	fold change [5]	fold change [6]
O=C(CCc1ccccc1)NNC(=S)NC(=O)c1ccccc1	1.64 (inactive)	1.22 (inactive)	1.2 (inactive)	1.32 (inactive)	0.995 (inactive)	2.56
CCCOc1ccc(C(=O)NNC(=S)NC(=O)CC)cc1	1.77 (inactive)	1.22 (inactive)	1.17 (inactive)	1.21 (inactive)	1.05 (inactive)	2.42
Clc1ccc(N=c2ssnc2Cl)cc1	1.08 (inactive)	0.99 (inactive)	0.957 (inactive)	0.981 (inactive)	0.846 (inactive)	1.45 (inactive)
Cc1ccc(S(=O)(=O)c2ncccc2[N+](=O)[O-])cc1	1 (inactive)	0.924 (inactive)	0.701 (inactive)	0.87 (inactive)	0.853 (inactive)	1.33 (inactive)
Cc1ccc(C(=O)NNC(=S)NC(=O)COc2ccccc2)cc1	1.28 (inactive)	1.19 (inactive)	1.08 (inactive)	1.34 (inactive)	1 (inactive)	1.93
Cc1ccc(C(c2cc(Cl)c3cccnc3c2O)N2CCN(C)CC2)cc1 (stereo not drawn)	0.978 (inactive)	1.03 (inactive)	1.03 (inactive)	0.889 (inactive)	1.06 (inactive)	1.8
O=C(OCC(=O)N1CCN(C(=O)c2ccco2)CC1)c1cc(-c2cccc(Br)c2)nc2ccccc12	0.913 (inactive)	0.779 (inactive)	1.05 (inactive)	1.29 (inactive)	1.14 (inactive)	1.33 (inactive)
O=C1ON=C(c2ccccc2)/C1=C/c1ccco1	1.32 (inactive)	1.02 (inactive)	1.09 (inactive)	1.4 (inactive)	0.866 (inactive)	1.37 (inactive)
C/C(=N\NC(=O)c1ccc(C(C)(C)C)cc1)c1ccccn1	0.905 (inactive)	0.975 (inactive)	0.97 (inactive)	1.47 (inactive)	1 (inactive)	0.921 (inactive)
CC1=NN(c2ccccc2)C(=O)C1C(c1ccccc1[N+](=O)[O-])C(C#N)C#N (stereo not drawn)	1.12 (inactive)	1.09 (inactive)	1.1 (inactive)	1 (inactive)	0.965 (inactive)	1.82
O=[N+]([O-])c1ccc(O)c2ncccc12	1.48 (inactive)	1.19 (inactive)	1.26 (inactive)	1.21 (inactive)	1.47 (inactive)	2.22
O=C(OCn1ncc(Br)c(Br)c1=O)c1c(F)cccc1F	0.865 (inactive)	0.936 (inactive)	0.911 (inactive)	1.48 (inactive)	0.921 (inactive)	1.31 (inactive)
CC(C)(C)C(=O)C(Cl)C(=O)Nc1ccccc1 (stereo not drawn)	1 (inactive)	0.877 (inactive)	1.36 (inactive)	1.44 (inactive)	1.11 (inactive)	2.24
